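1) Cells in 96-well plates. 2) Compound, 48 h, 5 concentrations. 3) Linear interpolation between surrounding doses. 4) Unreached endpoint = highest concentration. GI50 marks 50% less growth.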 Active and inactive are the calls of the source. Cut-off read from the data, not from the text of the source: active = GI50 up to about 1.1 µM and inactive = higher.
Tests used:
Assay in all cases: NCI-60 cell line screen, 48 h
786-0 = tested on: 786-0
A498 = tested on: A498
A549 = tested on: A549
ACHN = tested on: ACHN
BT-549 = tested on: BT-549
CAKI-1 = tested on: CAKI-1
CCRF-CEM = tested on: CCRF-CEM
COLO 205 = tested on: COLO 205
DLD-1 = tested on: DLD-1
DMS-114 = tested on: DMS-114
DMS-273 = tested on: DMS-273
DU-145 = tested on: DU-145
EKVX = tested on: EKVX
HCC 2998 = tested on: HCC 2998
HCT-116 = tested on: HCT-116
HCT-15 = tested on: HCT-15
HL-60 = tested on: HL-60
HOP-18 = tested on: HOP-18
HOP-62 = tested on: HOP-62
HOP-92 = tested on: HOP-92
HT-29 = tested on: HT-29
Hs-578T = tested on: Hs-578T
IGROV-1 = tested on: IGROV-1
K562 = tested on: K562
KM-20L2 = tested on: KM-20L2
KM12 = tested on: KM12
LOX IMVI = tested on: LOX IMVI
LXFL 529 = tested on: LXFL 529
M14 = tested on: M14
M19-MEL = tested on: M19-MEL
MCF7 = tested on: MCF7
MDA-MB-435 = tested on: MDA-MB-435
MDA-N = tested on: MDA-N
MOLT-4 = tested on: MOLT-4
Malme-3M = tested on: Malme-3M
NCI-H226 = tested on: NCI-H226
NCI-H23 = tested on: NCI-H23
NCI-H460 = tested on: NCI-H460
NCI-H522 = tested on: NCI-H522
NCI/ADR-RES = tested on: NCI/ADR-RES
OVCAR-3 = tested on: OVCAR-3
OVCAR-4 = tested on: OVCAR-4
OVCAR-5 = tested on: OVCAR-5
OVCAR-8 = tested on: OVCAR-8
PC-3 = tested on: PC-3
RPMI-8226 = tested on: RPMI-8226
RXF 393 = tested on: RXF 393
RXF 631 = tested on: RXF 631
SF-268 = tested on: SF-268
SF-295 = tested on: SF-295
SF-539 = tested on: SF-539
SK-MEL-28 = tested on: SK-MEL-28
SK-MEL-2 = tested on: SK-MEL-2
SK-MEL-5 = tested on: SK-MEL-5
SK-OV-3 = tested on: SK-OV-3
SN12C = tested on: SN12C
SNB-19 = tested on: SNB-19
SNB-75 = tested on: SNB-75
SR = tested on: SR
SW-620 = tested on: SW-620
T47D = tested on: T47D
TK-10 = tested on: TK-10
U-251 = tested on: U-251
UACC-257 = tested on: UACC-257
UACC-62 = tested on: UACC-62
UO-31 = tested on: UO-31
XF498 = tested on: XF498

SMILES: CCOC(=O)NC(=O)c1cn(CCCOC(=O)CCCCCCCCC(=O)OCCCn2cc(C(=O)NC(=O)OCC)c(=O)n(C)c2=O)c(=O)n(C)c1=O
- GI50 (786-0): > 76.6 µM (inactive)
- GI50 (A498): > 100 µM (inactive)
- GI50 (A549): > 100 µM (inactive)
- GI50 (ACHN): > 100 µM (inactive)
- GI50 (BT-549): > 100 µM (inactive)
- GI50 (CAKI-1): > 69 µM (inactive)
- GI50 (CCRF-CEM): > 46.5 µM (inactive)
- GI50 (COLO 205): > 100 µM (inactive)
- GI50 (DLD-1): > 100 µM (inactive)
- GI50 (DMS-114): > 100 µM (inactive)
- GI50 (DMS-273): > 100 µM (inactive)
- GI50 (DU-145): > 100 µM (inactive)
- GI50 (EKVX): > 100 µM (inactive)
- GI50 (HCC 2998): > 100 µM (inactive)
- GI50 (HCT-116): > 100 µM (inactive)
- GI50 (HCT-15): > 100 µM
- GI50 (HL-60): > 77.8 µM (inactive)
- GI50 (HOP-18): > 100 µM (inactive)
- GI50 (HOP-62): > 70.6 µM (inactive)
- GI50 (HOP-92): > 59 µM (inactive)
- GI50 (HT-29): > 100 µM (inactive)
- GI50 (Hs-578T): > 100 µM (inactive)
- GI50 (IGROV-1): > 100 µM (inactive)
- GI50 (K562): > 100 µM (inactive)
- GI50 (KM-20L2): > 100 µM (inactive)
- GI50 (KM12): > 100 µM (inactive)
- GI50 (LOX IMVI): > 100 µM (inactive)
- GI50 (LXFL 529): > 100 µM (inactive)
- GI50 (M14): > 100 µM (inactive)
- GI50 (M19-MEL): > 100 µM (inactive)
- GI50 (MCF7): > 100 µM (inactive)
- GI50 (MDA-MB-435): > 100 µM (inactive)
- GI50 (MDA-N): > 100 µM (inactive)
- GI50 (MOLT-4): > 100 µM (inactive)
- GI50 (Malme-3M): > 100 µM (inactive)
- GI50 (NCI-H226): > 100 µM (inactive)
- GI50 (NCI-H23): > 100 µM (inactive)
- GI50 (NCI-H460): > 100 µM (inactive)
- GI50 (NCI-H522): > 100 µM (inactive)
- GI50 (NCI/ADR-RES): > 100 µM (inactive)
- GI50 (OVCAR-3): > 100 µM (inactive)
- GI50 (OVCAR-4): > 100 µM (inactive)
- GI50 (OVCAR-5): > 100 µM (inactive)
- GI50 (OVCAR-8): > 79.4 µM (inactive)
- GI50 (PC-3): > 100 µM (inactive)
- GI50 (RPMI-8226): > 100 µM (inactive)
- GI50 (RXF 393): > 82.8 µM (inactive)
- GI50 (RXF 631): > 80.7 µM (inactive)
- GI50 (SF-268): > 100 µM (inactive)
- GI50 (SF-295): > 100 µM (inactive)
- GI50 (SF-539): > 68.7 µM (inactive)
- GI50 (SK-MEL-28): > 100 µM (inactive)
- GI50 (SK-MEL-2): 97.1 µM (inactive)
- GI50 (SK-MEL-5): > 100 µM (inactive)
- GI50 (SK-OV-3): > 100 µM (inactive)
- GI50 (SN12C): > 100 µM (inactive)
- GI50 (SNB-19): 67 µM (inactive)
- GI50 (SNB-75): > 48.2 µM (inactive)
- GI50 (SR): > 100 µM (inactive)
- GI50 (SW-620): > 92 µM (inactive)
- GI50 (T47D): > 100 µM (inactive)
- GI50 (TK-10): > 86.5 µM (inactive)
- GI50 (U-251): > 100 µM (inactive)
- GI50 (UACC-257): > 100 µM (inactive)
- GI50 (UACC-62): > 100 µM (inactive)
- GI50 (UO-31): > 100 µM (inactive)
- GI50 (XF498): > 54.3 µM (inactive)

— ChEMBL document CHEMBL1201862, “PubChem BioAssay data set” (2004)
